Where two headings read alike, the source gives them in different places.
Experiments:
CjIMPDH [1] = target: T1, CjIMPDH (Campylobacter jejuni, UniProt Q0P9J4); assay: steady-state kinetics, A340; format: biochemical; settings: substrate inhibition by NAD+; pH 8.0, 25 °C
T1 construct: gene guaB; full-length wild type, N-terminal His6 tag, pMCSG7, E. coli; tetramer
T1 sequence (Q0P9J4 1-485): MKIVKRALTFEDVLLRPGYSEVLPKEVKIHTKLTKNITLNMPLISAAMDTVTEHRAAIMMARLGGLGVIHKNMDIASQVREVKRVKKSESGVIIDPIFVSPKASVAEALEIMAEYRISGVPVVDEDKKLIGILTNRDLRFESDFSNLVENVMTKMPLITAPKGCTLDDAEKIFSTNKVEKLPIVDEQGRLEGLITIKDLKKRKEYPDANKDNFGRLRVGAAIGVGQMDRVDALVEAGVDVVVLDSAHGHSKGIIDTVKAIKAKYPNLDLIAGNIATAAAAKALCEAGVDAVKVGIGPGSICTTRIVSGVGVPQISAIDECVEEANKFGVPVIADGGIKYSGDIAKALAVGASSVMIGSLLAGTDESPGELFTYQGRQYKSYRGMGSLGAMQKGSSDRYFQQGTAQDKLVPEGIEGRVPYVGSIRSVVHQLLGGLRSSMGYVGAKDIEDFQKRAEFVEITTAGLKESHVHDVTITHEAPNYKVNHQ
Source text: steady-state kinetics, A340 on CjIMPDH

BaIMPDH = target: T2, BaIMPDH (Bacillus anthracis, UniProt A0A6L8P2U9); format: biochemical
T2 construct: gene guaB

CjIMPDH [2] = target: T1, CjIMPDH; assay: NADH production, A340; format: biochemical
Source text: NADH production, A340 on CjIMPDH

CpIMPDH = target: T3, CpIMPDH (Cryptosporidium parvum, UniProt Q8T6T2); assay: NADH production, A340; format: biochemical
T3 construct: gene 56k.02; recombinant
T3 sequence (Q8T6T2 1-400): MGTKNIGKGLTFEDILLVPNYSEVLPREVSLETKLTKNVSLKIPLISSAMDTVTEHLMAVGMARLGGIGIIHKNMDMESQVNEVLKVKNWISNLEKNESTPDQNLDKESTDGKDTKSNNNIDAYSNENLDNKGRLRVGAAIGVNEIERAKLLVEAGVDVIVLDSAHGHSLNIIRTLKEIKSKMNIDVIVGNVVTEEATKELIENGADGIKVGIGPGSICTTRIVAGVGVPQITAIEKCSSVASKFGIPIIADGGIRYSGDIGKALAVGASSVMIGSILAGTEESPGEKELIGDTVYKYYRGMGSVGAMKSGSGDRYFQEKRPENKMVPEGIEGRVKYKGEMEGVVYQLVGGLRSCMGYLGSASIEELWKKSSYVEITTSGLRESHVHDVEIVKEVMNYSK
Source text: NADH production, A340 on CpIMPDH

CjIMPDHΔS = target: T4, CjIMPDHΔS (Campylobacter jejuni, UniProt Q0P9J4, INS91G/DEL92-195); assay: NADH production, A340; format: biochemical; settings: pH 8.0, 1 mM IMP, NAD+ about 2.5 x Km, 10 min preincubation, room temperature
T4 construct: gene guaB
T4 sequence (Q0P9J4 1-485 INS91G/DEL92-195): T1 sequence (Q0P9J4 1-485)
Source text: NADH production, A340 on CjIMPDHΔS

VcIMPDH = target: T5, VcIMPDH (Vibrio cholerae, UniProt Q9KTW3); assay: NADH production, A340; format: biochemical; settings: read-out: IC50 / 1
T5 construct: gene guaB; full-length wild type, N-terminal His6 tag, recombinant E. coli; tetramer
T5 sequence (Q9KTW3 1-489): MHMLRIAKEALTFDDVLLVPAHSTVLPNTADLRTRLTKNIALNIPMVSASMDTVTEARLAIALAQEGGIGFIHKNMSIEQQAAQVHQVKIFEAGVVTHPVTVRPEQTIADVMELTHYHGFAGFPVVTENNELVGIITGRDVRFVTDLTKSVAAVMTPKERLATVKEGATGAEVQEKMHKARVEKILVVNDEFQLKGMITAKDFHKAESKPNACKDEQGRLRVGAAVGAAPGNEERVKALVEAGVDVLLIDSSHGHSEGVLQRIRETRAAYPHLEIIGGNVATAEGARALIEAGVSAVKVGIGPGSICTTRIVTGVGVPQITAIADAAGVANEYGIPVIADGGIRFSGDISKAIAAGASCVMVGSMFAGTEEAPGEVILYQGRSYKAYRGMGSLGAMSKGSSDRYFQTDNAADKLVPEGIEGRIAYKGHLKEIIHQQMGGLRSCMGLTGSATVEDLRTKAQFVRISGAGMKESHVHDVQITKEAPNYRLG
Source text: NADH production, A340 on VcIMPDH

[3] = test system: NC(=O)c1ccc[n+]([C@@H]2O[C@H](COP(=O)(O)OP(=O)(O)OC[C@H]3O[C@@H](n4cnc5c(N)ncnc54)[C@H](O)[C@@H]3O)[C@@H](O)[C@H]2O)c1; assay: purified protein; settings: pH 8.0; 25.0 °C

T2 sequence (A0A6L8P2U9 1-487 limits assumed): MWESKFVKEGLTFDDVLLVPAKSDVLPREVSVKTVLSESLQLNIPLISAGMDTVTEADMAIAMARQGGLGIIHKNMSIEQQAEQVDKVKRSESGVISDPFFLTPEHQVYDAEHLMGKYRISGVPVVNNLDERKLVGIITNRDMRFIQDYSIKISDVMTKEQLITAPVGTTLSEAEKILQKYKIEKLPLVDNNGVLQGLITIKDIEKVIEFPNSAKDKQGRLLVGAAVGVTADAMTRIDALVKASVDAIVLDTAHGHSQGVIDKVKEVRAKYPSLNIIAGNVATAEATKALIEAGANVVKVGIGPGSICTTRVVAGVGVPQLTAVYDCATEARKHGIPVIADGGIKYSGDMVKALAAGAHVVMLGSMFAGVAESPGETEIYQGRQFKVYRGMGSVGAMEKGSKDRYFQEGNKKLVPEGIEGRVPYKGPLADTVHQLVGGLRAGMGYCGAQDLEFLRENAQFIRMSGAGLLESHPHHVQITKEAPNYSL

`NC(=O)c1ccc[n+]([C@@H]2O[C@H](COP(=O)(O)OP(=O)(O)OC[C@H]3O[C@@H](n4cnc5c(N)ncnc54)[C@H](O)[C@@H]3O)[C@@H](O)[C@H]2O)c1` [NAD^+] was tested, and the “NAD^+ Kii” value (CjIMPDH [1]) was 20 ± 2 mM and the “NAD^+ Kii” value (BaIMPDH) was 3.9 ± 0.8 mM.

Work on `C[C@@H](Oc1cc[n+]([O-])c2ccccc12)c1cn(-c2ccc(Cl)cc2)nn1` [compound 1, 4-[(1R)-[1-(4-chlorophenyl)-1H-1,2,3-triazol-4yl]ethoxy]quinoline-1-oxide] yielded an IC50 (CjIMPDH [2]; read-out: IC50 / 1) of 140 ± 30 nM, an IC50 (CpIMPDH; read-out: IC50 / 1) of 9 ± 2 nM and an IC50 (CjIMPDHΔS; read-out: IC50 / 1) of 107 ± 8 nM.

With `Cn1nc(CC(=O)Nc2ccc3oc4c(c3c2)CCCC4)c2ccccc2c1=O` [compound 3, 3,4-dihydro-3-methyl-4-oxo-N-(6,7,8,9-tetrahydro2-dibenzofuranyl)-1-phthalazineacetamide] the IC50 (CjIMPDH [2]; read-out: IC50 / 3) was 169 ± 20 nM, the IC50 (CpIMPDH; read-out: IC50 / 3) was 24 ± 6 nM and the IC50 (CjIMPDHΔS; read-out: IC50 / 3) was 200 ± 20 nM. For the same molecule, the IC50 (VcIMPDH) was > 5000 nM.

`C=C(C)c1cccc(C(C)(C)NC(=O)Nc2ccc(Br)cc2)c1` [compound 4] was tested, and the IC50 (CjIMPDH [2]; read-out: IC50 / 4) was 36 ± 8 nM, the IC50 (CpIMPDH; read-out: IC50 / 4) was 11 ± 5 nM and the IC50 (CjIMPDHΔS; read-out: IC50 / 4) was 67 ± 13 nM. The IC50 (VcIMPDH) was > 5000 nM.

Molecule `C/C(=N\O)c1cccc(C(C)(C)NC(=O)Nc2ccc(Br)cc2)c1` [compound 6] has an IC50 (CjIMPDH [2]; read-out: IC50 / 6) of 29 ± 4 nM, an IC50 (CpIMPDH; read-out: IC50 / 6) of 8 ± 2 nM and an IC50 (CjIMPDHΔS; read-out: IC50 / 6) of 46 ± 4 nM. The IC50 (VcIMPDH) was > 5000 nM.

With `C[C@H](Oc1cccc2ccccc12)C(=O)Nc1ccc2oc(-c3ccncc3)nc2c1` [compound 7, 2-(1-naphthalenyloxy)-N-[2-(4-pyridinyl)-5-benzoxazolyl)-(2S)-propanamide] the IC50 (CjIMPDH [2]; read-out: IC50 / 7) was 13 ± 2 nM, the IC50 (CjIMPDHΔS; read-out: IC50 / 7) was 19 ± 2 nM and the IC50 (VcIMPDH) was > 5000 nM.

In the case of BaIMPDH (Bacillus anthracis), the Km [3] is reported as 550 ± 100 µM.
